22 molecules from ChEMBL document CHEMBL1154644 (J Med Chem, 2009) can be followed below.

Calls of active or inactive are those of the source. No cut-off for these calls is given here.

In series [1] the target is T1, Serine/threonine-protein kinase mTOR (Homo sapiens, UniProt P42345). Briefly: Inhibition of human mTOR by DELFIA assay. In kind it is single protein.
For series [2], the target named is T1, Serine/threonine-protein kinase mTOR. The series is described as follows: Inhibition of mTOR-mediated signaling in human A498 cells assessed as inhibition of phosphorylation of 4EBP1 (T70) measured after 6 hrs by immunoblotting. In kind it is cell-based. A general note: A western blot detects proteins with antibodies after separation by electrophoresis.
Series [3] has the same target. Briefly: Inhibition of mTOR-mediated signaling in human A498 cells assessed as inhibition of phosphorylation of 4EBP1 (T37/46) measured after 6 hrs by immunoblotting. In kind it is cell-based.
Series [4] shares this target. The series is described as follows: Inhibition of mTOR-mediated signaling in human A498 cells assessed as inhibition of phosphorylation of S6K1(T389) measured after 6 hrs by immunoblotting. Type of series: cell-based.
Series [5] has the same target. The series is described as follows: Inhibition of mTOR-mediated signaling in human A498 cells assessed as inhibition of phosphorylation of AKT (S473) measured after 6 hrs by immunoblotting.
Series [6] has as its target Phosphatidylinositol 4,5-bisphosphate 3-kinase catalytic subunit alpha isoform (Homo sapiens, UniProt P42336). Briefly: Inhibition of PI3Kalpha by fluorescence polarization assay.
Series [7] concerns the target Fibroblast growth factor receptor 1 (Homo sapiens) (UniProt P11362). The series is described as follows: Inhibition of FGFR1 at 2 uM.
Series [8] has as its target BDNF/NT-3 growth factors receptor (Homo sapiens) (UniProt Q16620). Briefly: Inhibition of NTRK2 at 2 uM.
The target in series [9] is Tyrosine-protein kinase CSK (Homo sapiens) (UniProt P41240). The series is described as follows: Inhibition of CSK at 2 uM.
Tyrosine-protein kinase CSK (Homo sapiens), sequence (P41240 2-450 limits assumed): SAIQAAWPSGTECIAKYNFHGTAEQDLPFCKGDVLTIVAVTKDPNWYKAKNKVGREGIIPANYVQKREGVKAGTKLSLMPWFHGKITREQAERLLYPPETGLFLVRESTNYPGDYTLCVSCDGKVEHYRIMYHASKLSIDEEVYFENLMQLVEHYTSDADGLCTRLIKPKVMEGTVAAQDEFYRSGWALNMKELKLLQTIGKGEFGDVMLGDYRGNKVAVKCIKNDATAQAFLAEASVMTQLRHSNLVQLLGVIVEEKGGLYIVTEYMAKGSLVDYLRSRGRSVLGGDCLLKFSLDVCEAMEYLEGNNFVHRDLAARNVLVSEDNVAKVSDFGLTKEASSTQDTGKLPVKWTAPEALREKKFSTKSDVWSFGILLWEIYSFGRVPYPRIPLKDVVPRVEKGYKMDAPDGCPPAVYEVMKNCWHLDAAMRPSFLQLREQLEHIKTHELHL
The target in series [10] is Serine/threonine-protein kinase 25 (Homo sapiens) (UniProt O00506). Briefly: Inhibition of STK25 at 2 uM.
For series [11], the target named is Angiopoietin-1 receptor (Homo sapiens) (UniProt Q02763). The series is described as follows: Inhibition of TEK at 2 uM.
In series [12] the target is T1, Serine/threonine-protein kinase mTOR. Briefly: Inhibition of human mTOR assessed as ATP competitive inhibition by Lineweaver-Burke double reciprocal dose-response plot.
Series [13] has as its target Serine/threonine-protein kinase 26 (Homo sapiens) (UniProt Q9P289). The series is described as follows: Inhibition of MST4 at 2 uM.
The nature of series [14]: Inhibition of AMPK at 2 uM.
Series [15] addresses T1, Serine/threonine-protein kinase mTOR. The series is described as follows: Inhibition of mTOR-mediated signaling in PTEN-negative, PI3K/AKT-hyperactive human U87MG cells assessed as inhibition of phosphorylation of AKT(S473) measured after 6 hrs by immunoblotting. In kind it is cell-based. The note with it: U-87MG ATCC.
The target in series [16] is Dual specificity protein kinase CLK1 (Homo sapiens) (UniProt P49759). The series is described as follows: Inhibition of CLK1 at 2 uM.
The target in series [17] is T1, Serine/threonine-protein kinase mTOR. Briefly: Inhibition of mTOR-mediated signaling in PTEN-negative, PI3K/AKT-hyperactive human U87MG cells assessed as inhibition of phosphorylation of S6K1(T389) measured after 6 hrs by immunoblotting. As to conditions: U-87MG ATCC. In kind it is cell-based.
For series [18] the target is unchanged. Briefly: Inhibition of mTOR-mediated signaling in PTEN-negative, PI3K/AKT-hyperactive human U87MG cells assessed as inhibition of PI3K/PDK1 measured after 6 hrs by immunoblotting. In kind it is cell-based. The note with it: U-87MG ATCC.
Series [19] deals with Serine/threonine-protein kinase PAK 2 (Homo sapiens) (UniProt Q13177). Briefly: Inhibition of PAK2 at 2 uM.
Serine/threonine-protein kinase PAK 2 (Homo sapiens), sequence (Q13177 whole entry): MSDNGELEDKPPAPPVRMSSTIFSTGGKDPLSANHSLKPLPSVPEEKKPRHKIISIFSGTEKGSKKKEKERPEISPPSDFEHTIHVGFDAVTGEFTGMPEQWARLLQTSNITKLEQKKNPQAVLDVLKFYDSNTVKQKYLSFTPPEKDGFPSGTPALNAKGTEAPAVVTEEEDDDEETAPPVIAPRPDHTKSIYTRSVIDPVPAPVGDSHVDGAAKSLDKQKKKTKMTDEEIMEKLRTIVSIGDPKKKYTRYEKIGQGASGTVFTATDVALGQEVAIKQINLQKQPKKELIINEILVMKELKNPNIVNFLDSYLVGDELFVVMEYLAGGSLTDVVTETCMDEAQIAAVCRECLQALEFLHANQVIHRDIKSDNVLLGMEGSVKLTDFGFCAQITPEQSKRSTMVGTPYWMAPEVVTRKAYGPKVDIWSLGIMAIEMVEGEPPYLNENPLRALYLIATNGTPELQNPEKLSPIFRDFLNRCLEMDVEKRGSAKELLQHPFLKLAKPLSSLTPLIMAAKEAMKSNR
In series [20] the target is T1, Serine/threonine-protein kinase mTOR. The series is described as follows: Inhibition of mTOR-mediated signaling in human A498 cells assessed as inhibition of mTORC2 biomarker measured after 6 hrs by immunoblotting. Type of series: cell-based.
The target is the same in series [21]. Briefly: Inhibition of mTOR-mediated signaling in PTEN-negative, PI3K/AKT-hyperactive human U87MG cells assessed as inhibition of phosphorylation of AKT(T308) measured after 6 hrs by immunoblotting. Type of series: cell-based. The note with it: U-87MG ATCC.
Series [22] has as its target Serine/threonine-protein kinase PAK 5 (Homo sapiens) (UniProt Q9P286). The series is described as follows: Inhibition of PAK7 at 2 uM.
Series [23] has as its target T2, Serine/threonine-protein kinase Sgk3 (Homo sapiens) (UniProt Q96BR1).
T2 sequence (whole entry): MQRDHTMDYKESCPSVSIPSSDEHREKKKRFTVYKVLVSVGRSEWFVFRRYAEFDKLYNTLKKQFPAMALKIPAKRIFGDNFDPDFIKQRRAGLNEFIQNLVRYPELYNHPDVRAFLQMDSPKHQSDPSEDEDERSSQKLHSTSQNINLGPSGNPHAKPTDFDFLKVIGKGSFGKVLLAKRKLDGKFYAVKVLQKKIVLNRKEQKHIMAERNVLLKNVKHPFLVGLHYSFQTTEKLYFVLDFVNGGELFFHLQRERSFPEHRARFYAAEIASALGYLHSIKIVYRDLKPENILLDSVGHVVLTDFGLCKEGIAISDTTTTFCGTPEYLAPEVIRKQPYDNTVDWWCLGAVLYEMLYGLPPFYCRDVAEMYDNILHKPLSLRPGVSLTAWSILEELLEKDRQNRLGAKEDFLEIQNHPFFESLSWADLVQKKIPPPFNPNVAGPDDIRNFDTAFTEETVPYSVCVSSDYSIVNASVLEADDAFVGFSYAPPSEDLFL
Briefly: Inhibition of SGKL at 2 uM.

Series [24] concerns the target Tyrosine-protein kinase JAK2 (Homo sapiens) (UniProt O60674). The series is described as follows: Inhibition of JAK2 at 2 uM.
In series [25] the target is Serine/threonine-protein kinase D3 (PRKD3/PKCν) (Homo sapiens) (UniProt O94806). The series is described as follows: Inhibition of PRKCN at 2 uM.
The nature of series [26]: Selectivity for human mTOR over PI3Kalpha.
A short description of series [27]: Clearance in rat hepatocyte assessed as half life. The note with it: hepatocytes. In kind it is ADME, cell-based, Liver.

Phosphatidylinositol 4,5-bisphosphate 3-kinase catalytic subunit alpha isoform, sequence (P42336 whole entry, canonical isoform): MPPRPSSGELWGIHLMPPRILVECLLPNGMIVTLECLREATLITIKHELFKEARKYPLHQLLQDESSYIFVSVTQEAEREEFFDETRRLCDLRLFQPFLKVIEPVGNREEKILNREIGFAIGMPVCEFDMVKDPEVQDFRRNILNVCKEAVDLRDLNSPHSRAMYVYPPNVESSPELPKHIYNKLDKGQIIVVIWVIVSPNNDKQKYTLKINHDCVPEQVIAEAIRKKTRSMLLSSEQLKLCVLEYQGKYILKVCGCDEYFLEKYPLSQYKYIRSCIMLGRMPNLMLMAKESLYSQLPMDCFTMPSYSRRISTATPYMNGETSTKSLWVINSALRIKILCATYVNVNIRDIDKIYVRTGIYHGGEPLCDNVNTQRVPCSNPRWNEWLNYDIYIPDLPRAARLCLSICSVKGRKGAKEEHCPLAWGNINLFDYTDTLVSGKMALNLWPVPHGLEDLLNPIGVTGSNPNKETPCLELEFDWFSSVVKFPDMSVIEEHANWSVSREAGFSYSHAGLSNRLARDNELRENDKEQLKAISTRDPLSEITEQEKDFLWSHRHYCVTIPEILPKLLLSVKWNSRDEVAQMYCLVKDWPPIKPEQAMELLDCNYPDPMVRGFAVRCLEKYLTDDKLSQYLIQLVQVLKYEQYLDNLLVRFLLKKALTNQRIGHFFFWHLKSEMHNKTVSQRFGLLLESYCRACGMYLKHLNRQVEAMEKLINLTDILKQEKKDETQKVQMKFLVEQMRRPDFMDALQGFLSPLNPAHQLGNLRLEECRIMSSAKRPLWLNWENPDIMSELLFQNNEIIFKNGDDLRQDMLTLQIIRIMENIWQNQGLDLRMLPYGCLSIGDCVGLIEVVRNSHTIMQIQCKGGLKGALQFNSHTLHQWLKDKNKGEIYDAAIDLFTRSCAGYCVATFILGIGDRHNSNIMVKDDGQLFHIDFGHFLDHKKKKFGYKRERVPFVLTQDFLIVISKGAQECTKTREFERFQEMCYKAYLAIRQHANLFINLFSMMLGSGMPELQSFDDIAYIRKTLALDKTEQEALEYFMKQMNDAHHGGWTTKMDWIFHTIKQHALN
BDNF/NT-3 growth factors receptor (Homo sapiens), sequence (Q16620 32-822 limits assumed): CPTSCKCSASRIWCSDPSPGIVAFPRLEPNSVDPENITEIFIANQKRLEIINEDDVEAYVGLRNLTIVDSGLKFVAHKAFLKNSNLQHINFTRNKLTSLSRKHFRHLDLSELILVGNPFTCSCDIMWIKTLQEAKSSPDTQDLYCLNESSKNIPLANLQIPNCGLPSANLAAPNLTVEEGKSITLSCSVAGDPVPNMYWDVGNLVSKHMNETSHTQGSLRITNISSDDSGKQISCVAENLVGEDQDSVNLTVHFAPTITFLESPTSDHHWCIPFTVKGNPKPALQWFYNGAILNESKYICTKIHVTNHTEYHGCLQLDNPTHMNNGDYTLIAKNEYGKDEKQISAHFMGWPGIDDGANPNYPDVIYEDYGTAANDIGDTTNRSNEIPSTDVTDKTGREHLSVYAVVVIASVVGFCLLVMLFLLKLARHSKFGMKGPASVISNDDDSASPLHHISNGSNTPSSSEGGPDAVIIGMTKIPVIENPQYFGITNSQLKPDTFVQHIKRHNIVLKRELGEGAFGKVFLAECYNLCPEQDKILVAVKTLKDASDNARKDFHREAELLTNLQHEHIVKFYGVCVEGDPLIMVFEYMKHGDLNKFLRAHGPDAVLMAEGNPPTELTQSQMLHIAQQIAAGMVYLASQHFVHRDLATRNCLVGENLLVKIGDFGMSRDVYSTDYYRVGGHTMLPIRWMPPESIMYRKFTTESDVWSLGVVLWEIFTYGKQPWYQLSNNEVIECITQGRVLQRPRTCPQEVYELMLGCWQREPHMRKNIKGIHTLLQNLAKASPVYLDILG
Serine/threonine-protein kinase PAK 5 (Homo sapiens), sequence (Q9P286 whole entry, looked up): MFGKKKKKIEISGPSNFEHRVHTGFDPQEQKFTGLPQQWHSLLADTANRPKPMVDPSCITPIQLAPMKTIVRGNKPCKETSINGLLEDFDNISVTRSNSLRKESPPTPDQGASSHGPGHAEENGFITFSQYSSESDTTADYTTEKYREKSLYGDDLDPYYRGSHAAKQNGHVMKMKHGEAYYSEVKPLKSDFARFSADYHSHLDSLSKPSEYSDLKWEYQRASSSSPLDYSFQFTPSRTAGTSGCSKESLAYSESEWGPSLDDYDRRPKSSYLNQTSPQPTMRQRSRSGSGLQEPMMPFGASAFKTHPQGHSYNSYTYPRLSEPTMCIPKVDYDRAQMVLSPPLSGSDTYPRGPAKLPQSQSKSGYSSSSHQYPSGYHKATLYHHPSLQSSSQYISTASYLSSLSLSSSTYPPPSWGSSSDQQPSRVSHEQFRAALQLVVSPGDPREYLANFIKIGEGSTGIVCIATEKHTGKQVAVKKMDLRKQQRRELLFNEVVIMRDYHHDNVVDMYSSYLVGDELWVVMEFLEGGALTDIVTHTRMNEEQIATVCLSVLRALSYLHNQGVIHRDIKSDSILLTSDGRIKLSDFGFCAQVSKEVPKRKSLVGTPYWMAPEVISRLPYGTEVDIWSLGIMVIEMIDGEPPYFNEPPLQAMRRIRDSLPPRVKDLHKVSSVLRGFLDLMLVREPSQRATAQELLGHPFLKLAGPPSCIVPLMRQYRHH
Tyrosine-protein kinase JAK2 (Homo sapiens), sequence (O60674 whole entry): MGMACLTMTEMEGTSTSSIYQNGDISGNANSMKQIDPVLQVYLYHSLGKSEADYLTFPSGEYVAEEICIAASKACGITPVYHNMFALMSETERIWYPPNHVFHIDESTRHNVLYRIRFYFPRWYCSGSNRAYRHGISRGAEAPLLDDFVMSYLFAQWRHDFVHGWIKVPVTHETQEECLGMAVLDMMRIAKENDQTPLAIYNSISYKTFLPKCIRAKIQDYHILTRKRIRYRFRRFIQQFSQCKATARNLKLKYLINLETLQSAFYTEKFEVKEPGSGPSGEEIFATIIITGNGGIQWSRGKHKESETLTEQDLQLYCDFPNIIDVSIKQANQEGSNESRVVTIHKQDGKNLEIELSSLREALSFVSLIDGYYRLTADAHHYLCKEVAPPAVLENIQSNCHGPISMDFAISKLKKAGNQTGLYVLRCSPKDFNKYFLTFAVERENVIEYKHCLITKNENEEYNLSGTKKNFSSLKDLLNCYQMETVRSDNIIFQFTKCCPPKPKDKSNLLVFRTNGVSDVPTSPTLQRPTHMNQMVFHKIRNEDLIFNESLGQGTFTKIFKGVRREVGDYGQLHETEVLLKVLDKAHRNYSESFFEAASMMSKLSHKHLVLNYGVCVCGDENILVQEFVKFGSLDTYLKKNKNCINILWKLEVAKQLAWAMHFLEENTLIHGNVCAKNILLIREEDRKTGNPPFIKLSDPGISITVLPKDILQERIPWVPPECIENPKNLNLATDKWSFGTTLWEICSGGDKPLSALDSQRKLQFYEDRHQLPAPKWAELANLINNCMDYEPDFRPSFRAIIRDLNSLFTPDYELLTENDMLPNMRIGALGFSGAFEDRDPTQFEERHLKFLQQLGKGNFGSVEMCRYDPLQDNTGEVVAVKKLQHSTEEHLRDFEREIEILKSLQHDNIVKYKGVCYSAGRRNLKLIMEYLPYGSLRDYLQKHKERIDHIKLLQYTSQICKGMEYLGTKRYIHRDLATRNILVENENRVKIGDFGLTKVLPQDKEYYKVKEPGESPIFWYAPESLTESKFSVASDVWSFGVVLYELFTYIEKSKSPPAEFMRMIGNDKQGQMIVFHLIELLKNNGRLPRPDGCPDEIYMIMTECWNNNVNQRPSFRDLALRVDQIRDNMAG

Usually IC50 stands for the concentration at which inhibition is half-maximal. On to `c1ccc(CN2CCC(n3ncc4c(N5CCOCC5)nc(-c5ccncc5)nc43)CC2)cc1`, for which, in series [1], the IC50 was found to be 7300 nM.
Regarding `CO[C@H]1C[C@@H]2CC[C@@H](C)[C@@](O)(O2)C(=O)C(=O)N2CCCC[C@H]2C(=O)O[C@H]([C@H](C)C[C@@H]2CC[C@@H](O)[C@H](OC)C2)CC(=O)[C@H](C)/C=C(\C)[C@@H](O)[C@@H](OC)C(=O)[C@H](C)C[C@H](C)/C=C/C=C/C=C/1C`, the result in series [2] and in [4] was Active. In addition, the result in [3] and in [5] was inactive.
Regarding `c1ccc(CN2CCC(n3ncc4c(N5CCOCC5)nc(-c5cccnc5)nc43)CC2)cc1`, half-maximal inhibition in series [1] (IC50) was put at 695 nM.
Turning to `O=C(c1cccnc1)N1CCC(n2ncc3c(N4CCOCC4)nc(-c4ccc5[nH]ccc5c4)nc32)CC1`, the IC50 in series [6] is 5870 nM; in [1], 4 nM.
On to `Oc1cccc(-c2nc(N3CCOCC3)c3cnn(C4CCN(Cc5cccnc5)CC4)c3n2)c1`, for which, in [1], the IC50 is 10 nM.
Turning to `c1ccc(CN2CCC(n3ncc4c(N5CCOCC5)nc(-c5cccc6[nH]ccc56)nc43)CC2)cc1`, inhibition in [1] was half-maximal at 145 nM (IC50).
Usually inhibition stands for the change of the read-out against control, counted positive when it falls. The low end stands for little suppression, the high end for strong suppression. Regarding `c1cncc(CN2CCC(n3ncc4c(N5CCOCC5)nc(-c5ccc6[nH]ccc6c5)nc43)CC2)c1`, the inhibition in series [7], in series [8], in [9], in series [10], in [11] and in [13] was 50% throughout. For the same molecule, the inhibition in [14], in series [16], in [19], in series [22], in [23] and in series [24] was 50% throughout. The molecule also came in with an inhibition in series [25] of 50%. Moreover, the outcome in series [12], in series [15] and in [17] was Active. Further, the Activity result in series [2], in series [3], in [4], in series [20] and in [5] was “Dose-dependent effect” in each case. In addition, in series [1], the IC50 worked out at 9 nM. Further, the result in series [18] and in series [21] was inactive.
For the molecule `CC(=O)N1CCC(n2ncc3c(N4CCOCC4)nc(-c4cccc(O)c4)nc32)CC1`, the IC50 in series [1] turned out to be 49 nM.
On the same count and under the same terms, for `c1ccc(CN2CCC(n3ncc4c(N5CCOCC5)nc(-c5ccc6cc[nH]c6c5)nc43)CC2)cc1` the value was 230 nM; for `Oc1ccccc1-c1nc(N2CCOCC2)c2cnn(C3CCN(Cc4ccccc4)CC3)c2n1`, 1260 nM; for `c1ccc(CN2CCC(n3ncc4c(N5CCOCC5)nc(-c5ccc6[nH]ccc6c5)nc43)CC2)cc1`, 88 nM.
For the molecule `c1ccc(CN2CCC(n3ncc4c(N5CCOCC5)nc(-c5cnc6ccccc6c5)nc43)CC2)cc1`, the IC50 in [1] amounted to 120 nM.
Turning to `Oc1cccc(-c2nc(N3CCOCC3)c3cnn(C4CCNCC4)c3n2)c1`, inhibition in [1] was half-maximal at 215 nM (IC50).
Consider `O=C(c1cccnc1)N1CCC(n2ncc3c(N4CCOCC4)nc(-c4cccc(O)c4)nc32)CC1`, for which the figures for the IC50 in [6] and in series [1] were 86 nM and 6 nM, respectively. The fold change (FC) in [26] was above 10.
`O=C(c1ccccc1)N1CCC(n2ncc3c(N4CCOCC4)nc(-c4cccc(O)c4)nc32)CC1`: the results for the IC50 in series [6] and in series [1] were 50 nM and 4 nM, respectively.
`Oc1ccc(-c2nc(N3CCOCC3)c3cnn(C4CCN(Cc5ccccc5)CC4)c3n2)cc1` registered an IC50 in series [1] of 170 nM.
The same measure, in the same setting: for `c1ccc(CN2CCC(n3ncc4c(N5CCOCC5)nc(-c5cccc6cc[nH]c56)nc43)CC2)cc1` the value was 380 nM.
The molecule `c1cc2cc(-c3nc(N4CCOCC4)c4cnn(C5CCNCC5)c4n3)ccc2[nH]1` registered an IC50 in [1] of 170 nM.
`c1ccc(CN2CCC(n3ncc4c(N5CCOCC5)nc(-c5cc6ccccc6[nH]5)nc43)CC2)cc1` registered an IC50 in series [1] of 130 nM.
`O=c1[nH]c2ccc(-c3nc(N4CCOCC4)c4cnn(C5CCN(Cc6ccccc6)CC5)c4n3)cc2[nH]1` gave a fold change (FC) in series [26] above 20. For the same molecule, inhibition in [1] was half-maximal at 190 nM (IC50).
In turn, `c1ccc(CN2CCC(n3ncc4c(N5CCOCC5)nc(-c5ccc6ncccc6c5)nc43)CC2)cc1` had an IC50 in series [1] of 5950 nM.
What is called half-life is how long it takes for the measured level to halve. For `Oc1cccc(-c2nc(N3CCOCC3)c3cnn(C4CCN(Cc5ccccc5)CC4)c3n2)c1`, the fold change (FC) in series [26] is above 10. This molecule also yielded an IC50 in [1] of 78 nM. Further, in series [27], the half-life was 13 min.
